Drawing on US9809545B2, “Factor XIa inhibitors” (Merck Sharp & Dohme Corp., priority 2013, dated 2017), this text covers Ki for 14 molecules.

The structures appear in SMILES notation.

Chain of purified human Factor XIa (P03951 388-625): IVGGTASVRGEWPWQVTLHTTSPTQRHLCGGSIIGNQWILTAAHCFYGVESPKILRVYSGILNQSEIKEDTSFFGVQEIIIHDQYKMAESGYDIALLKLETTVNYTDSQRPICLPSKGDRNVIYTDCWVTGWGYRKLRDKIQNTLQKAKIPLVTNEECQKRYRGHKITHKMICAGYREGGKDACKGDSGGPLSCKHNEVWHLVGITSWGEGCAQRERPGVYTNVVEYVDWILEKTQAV
Chain of purified human Factor XIa (P03951 19-387 partner): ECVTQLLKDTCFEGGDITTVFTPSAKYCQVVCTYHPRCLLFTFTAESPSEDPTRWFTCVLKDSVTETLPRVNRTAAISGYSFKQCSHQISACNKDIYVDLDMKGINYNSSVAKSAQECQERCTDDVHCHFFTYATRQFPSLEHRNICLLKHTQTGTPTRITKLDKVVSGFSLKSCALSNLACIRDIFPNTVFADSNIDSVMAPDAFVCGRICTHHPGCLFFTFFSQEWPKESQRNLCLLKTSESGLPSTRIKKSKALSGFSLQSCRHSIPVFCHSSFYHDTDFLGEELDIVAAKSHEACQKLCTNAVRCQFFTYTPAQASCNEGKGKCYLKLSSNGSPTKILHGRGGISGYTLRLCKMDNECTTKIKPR

The test has as its target purified human Factor XIa (Homo sapiens (Human), UniProt P03951). The test can be described thus: Factor XIa Assay. Format: biochemical. Conditions: purified human Factor XIa 40 pM; substrate Z-Gly-Pro-Arg-AFC 100 μM; 50 mM HEPES pH 7.4; read-out: hFXIa Ki.
Experimental: The rate of hydrolysis of the chromogenic or fluorogenic substrate by the relevant serine protease was measured both in the absence and presence of compounds of the present invention. Assays were conducted at room temperature or at 37° C. […] A decrease in the rate of fluorescence change in the presence of inhibitor is indicative of enzyme inhibition. […] The results of this assay are expressed as the inhibitory constant, Ki.
Factor XIa determinations were made in 50 mM HEPES buffer at pH 7.4 containing 150 mM NaCl, 5 mM CaCl2, and 0.1% PEG 8000 (polyethylene glycol; JT Baker or Fisher Scientific). Determinations were made using purified human Factor XIa at a final concentration of 40 pM (Sekisui Diagnostics) and the synthetic substrate, Z-Gly-Pro-Arg-AFC, TFA salt (Sigma #C0980) at a concentration of 100 μM.
Activity assays were performed by diluting a stock solution of substrate at least tenfold to a final concentration ≦0.1 Km into a solution containing enzyme or enzyme equilibrated with inhibitor. Times required to achieve equilibration between enzyme and inhibitor were determined in control experiments. Initial velocities of product formation in the absence (Vo) or presence of inhibitor (Vi) were measured. Assuming competitive inhibition, and that unity is negligible compared Km/[S], [I]/e, and [I]/e (where [S], [I], and e respectively represent the total concentrations, of substrate, inhibitor and enzyme), the equilibrium constant (Ki) for dissociation of the inhibitor from the enzyme can be obtained from the dependence of Vo/Vi on [I] shown in the following equation.
For orientation: Ki means the equilibrium dissociation constant of an inhibitor or competing ligand from its target. Take `O=C(O)c1ccc2[nH]c([C@H](Cc3ccc(F)cc3)n3ccc(-c4cc(Cl)ccc4-n4cnnn4)cc3=O)nc2c1` [Example 3Bd, (S)-2-(1-(4-(5-chloro-2-(1H-tetrazol-1-yl)phenyl)-2-oxopyridin-1(2H)-yl)-2-(4-fluorophenyl)ethyl)-1H-benzo[d]imidazole-5-carboxylic acid]: the Ki was less than 5 nM.
As for `CCOC(=O)Nc1ccc(NC(=O)C(Cc2ccccc2)n2ccc(-c3cc(Cl)ccc3[N+](=O)[O-])cc2=O)cc1` (centres unmarked) [Example 1Ag, ethyl (4-(2-(4-(5-chloro-2-nitrophenyl)-2-oxopyridin-1(2H)-yl)-3-phenylpropanamido)phenyl)carbamate], the figure is 400 nM.
Take `O=C(C(Cc1ccccc1)n1ccc(-c2cc(Cl)ccc2[N+](=O)[O-])cc1=O)N1CCC(N2CC[C@@H](O)C2)CC1` (stereo partly drawn) [Example 1Aw, 4-(5-chloro-2-nitrophenyl)-1-(1-(4-((R)-3-hydroxypyrrolidin-1-yl)piperidin-1-yl)-1-oxo-3-phenylpropan-2-yl)pyridin-2(1H)-one]: the inhibition constant (Ki) was greater than 10000 nM.
Under `COC(=O)Nc1ccc(CNC(=O)C(Cc2ccccc2)n2ccc(-c3cc(Cl)ccc3[N+](=O)[O-])cc2=O)cc1` (centres unmarked) [Example 1Al, methyl (4-((2-(4-(5-chloro-2-nitrophenyl)-2-oxopyridin-1(2H)-yl)-3-phenylpropanamido)methyl)phenyl)carbamate] stands 340 nM; under `O=C(O)c1ccc(NC(=O)C(Cc2ccccc2)n2ccc(-c3cnccc3Cl)cc2=O)cc1` (centres unmarked) [Example 2Af, 4-(2-(4-chloro-2′-oxo-[3,4′-bipyridin]-1′(2′H)-yl)-3-phenylpropanamido)benzoic acid], 7750 nM; under `O=C(O)c1ccc(NC(=O)[C@@H](Cc2ccccc2)n2ccc(-c3cc(Cl)ccc3-n3cnnn3)cc2=O)cc1` [Example 1Ff, (R)-4-(2-(4-(5-chloro-2-(1H-tetrazol-1-yl)phenyl)-2-oxopyridin-1(2H)-yl)-3-phenylpropanamido)benzoic acid], 6 nM.
As for `O=C(O)c1ccc2[nH]c([C@H](Cc3ccccc3)n3ccc(-c4cc(Cl)ccc4-n4cnnn4)cc3=O)nc2c1` [Example 3g, (S)-2-(1-(4-(5-chloro-2-(1H-tetrazol-1-yl)phenyl)-2-oxopyridin-1(2H)-yl)-2-phenylethyl)-1H-benzo[d]imidazole-5-carboxylic acid], the figure is less than 5 nM; as for `O=C(O)c1ccc(NC(=O)[C@H](Cc2ccc(F)cc2)n2ccc(-c3cc(Cl)ccc3-n3cnnn3)cc2=O)cc1` [Example 1Ea, (S)-4-(2-(4-(5-chloro-2-(1H-tetrazol-1-yl)phenyl)-2-oxopyridin-1(2H)-yl)-3-(4-fluorophenyl)propanamido)benzoic acid], 6 nM; as for `O=C(O)c1ccc(NC(=O)[C@H](Cc2ccccc2)n2ccc(-c3cc(Cl)ccc3-n3cnnn3)cc2=O)cc1` [Example 1Ef, (S)-4-(2-(4-(5-chloro-2-(1H-tetrazol-1-yl)phenyl)-2-oxopyridin-1(2H)-yl)-3-phenylpropanamido)benzoic acid], less than 5 nM.
With `N=C(N)c1ccc(-c2ccn(C(Cc3ccccc3)C(=O)Nc3ccc(C(=O)O)cc3)c(=O)c2)cc1` (centres unmarked) [Example 2d, 4-(2-(4-(4-carbamimidoylphenyl)-2-oxopyridin-1(2H)-yl)-3-phenylpropanamido)benzoic acid], the Ki was found to be 370 nM.
Turning to `O=c1cc(-c2cc(Cl)ccc2-n2cnnn2)ccn1C(Cc1ccc(F)cc1)c1nc(-c2ccc(F)cc2)c[nH]1` (centres unmarked) [Example 4Af, 4-(5-chloro-2-(1H-tetrazol-1-yl)phenyl)-1-(2-(4-fluorophenyl)-1-(4-(4-fluorophenyl)-1H-imidazol-2-yl)ethyl)pyridin-2(1H)-one], the inhibitory constant (Ki) is 154 nM.
Under `O=c1cc(-c2cc(Cl)ccc2-n2cnnn2)ccn1[C@@H](Cc1ccc(F)cc1)c1nc2cc(P(=O)(O)O)ccc2[nH]1` [Example 5b, (S)-(2-(1-(4-(5-chloro-2-(1H-tetrazol-1-yl)phenyl)-2-oxopyridin-1(2H)-yl)-2-(4-fluorophenyl)ethyl)-1H-benzo[d]imidazol-5-yl)phosphonic acid] stands less than 5 nM.
As for `O=c1cc(-c2cc(Cl)ccc2-n2cnnn2)ccn1C(Cc1ccccc1)c1nc(-c2cccnc2)c[nH]1` (centres unmarked) [Example 4Aa, 4-(5-chloro-2-(1H-tetrazol-1-yl)phenyl)-1-(2-phenyl-1-(4-(pyridin-3-yl)-1H-imidazol-2-yl)ethyl)pyridin-2(1H)-one], the figure is less than 5 nM; as for `N#Cc1ccc(-c2cnc([C@@H](Cc3ccc(F)cc3)n3ccc(-c4cc(Cl)ccc4-n4cnnn4)cc3=O)[nH]2)cc1` [Example 4Cl, (R)-4-(2-(1-(4-(5-chloro-2-(1H-tetrazol-1-yl)phenyl)-2-oxopyridin-1(2H)-yl)-2-(4-fluorophenyl)ethyl)-1H-imidazol-5-yl)benzonitrile], less than 5 nM.
